Measured values reported in patent publication US6565876B1, “Carnitine and inositol phosphate-containing composition useful as dietary supplement or drug” (Sigma-Tau HealthScience S.p.A., priority 1999, dated 2003).

Tests used:
[1] = tested on: atherosclerotic vascular lesions of the abdominal aorta; assay: Anti-atherosclerotic activity, atherogenic diet; type: in vivo, male Wistar rats; settings: rats; atherogenic diet six weeks; daily 150 mg/kg propionyl carnitine, 100 mg/kg IP6
Protocol: […] according to the regimen proposed by Melinow (Melinow M. R., Atherosclerosis, 48:105, 1983). At the end of the sixth week of treatment, marked atherosclerotic vascular lesions had formed which were particularly pronounced at the abdominal aorta level. The severity of these lesions was evaluated by a morphometric method, measuring the thickness of the abdominal aorta and the intensity of the staining induced by Sudan IV with a progressive scoring system from 1 to 5. In these tests, the rats received daily administrations of 150 mg/kg of propionyl carnitine and 100 mg/kg of IP6, together with their atherogenic diets.

[2] = tested on: ornithine decarboxylase; assay: Antiproliferative activity, teleocidin-induced ornithine decarboxylase in epidermis; type: in vivo, mice
[3] = tested on: platelets from healthy volunteers; assay: Anti-platelet aggregation activity (collagen-induced, Born method); type: cell-based, human; settings: collagen 2.5 and 5 ng/mL, 10 min incubation, IP6 4 and 8 ng/mL
Protocol: The anti-platelet-aggregation activity of the composition according to the invention was assessed in blood samples from healthy volunteers. […] The aggregating agent used was collagen (2.5 ng/mL, 5 ng/mL) and the aggregation induced was measured photometrically according to the method described by Born (Born G. V., Nature, 194:927, 1962). […] The doses of propionyl L-carnitine used were 10 ng and 20 ng/mL, while the IP6 doses were 4 ng and 8 ng/mL.

[4] = tested on: swimming endurance in forced swimming; assay: Swimming endurance test; type: in vivo, mice; settings: propionyl L-carnitine 200 mg/kg, IP6 100 mg/kg, oral on the three days preceding the test
Protocol: Since IP6, which is rich in phosphate groups, is a useful energy reserve, a series of tests were performed to establish whether its administration may increase the swimming endurance time in mice submitted to forced swimming in a rectangular tank full of water, according to the technique described by Zheng (Zheng R. L., Acta Pharmacol. Sinica, 14:47, 1993) and whether its effect could be enhanced by using it in combination with a carnitine, such as, for instance, propionyl L-carnitine. The tests were performed on various groups of animals treated with propionyl L-carnitine (200 mg/kg) or with IP6 (100 mg/kg) alone or with the two compounds in combination. The compounds were administered orally on the three days preceding the test. In the animals thus treated, swimming endurance time was measured as compared to control animals.

[5] = tested on: chick cerebral neurons; assay: Neuronal hypoxia, NaCN-induced, ATP assay; type: cell-based; settings: propionyl L-carnitine 100 mg/L, IP6 50 mg/L; for ATP after reoxygenation time 0 / ATP after reoxygenation time 30 min: NaCN 1 mmol/L for 120 min; for ATP after reoxygenation time 0: reoxygenation 0; for ATP after reoxygenation time 30 min: reoxygenation 30 min
Protocol: To assess the protective activity of the composition according to the invention on hypoxia-induced damage at the neuronal level, tests were performed on cultures of chick cerebral neurons in which the reduction in cell respiration was induced by introducing NaCN into the cultures. […] The chick cerebral neuron cultures were prepared according to the technique described by […]., Nature, 281:378, 1979). Cytotoxic hypoxia was induced by adding NaCN to the culture medium to a final concentration of 1 mmol/L. After 120 min the medium was replaced by an NaCN-free medium, and the metabolism of the cells was blocked by washing with an iced buffer solution. The ATP assay was performed according to the procedure described by Werner (Werner A. J., Chromatogr. Biomed. Appl., 421:257, 1987).

[6] = tested on: muscle lipoperoxidation (malondialdehyde); assay: Muscle fatigue test, forced muscular exercise on moving belt, MDA in gastrocnemius muscle; type: in vivo, rats; settings: propionyl L-carnitine 200 mg/kg, IP6 100 mg/kg, three days before exercise; for MDA content in muscle after 5 min: gastrocnemius muscle 5 min after end of exercise; for MDA content in muscle after 30 min: gastrocnemius muscle 30 min after end of exercise
Protocol: Forced muscular exercise was tested in various groups of rats by making them run on a moving belt at controlled speed and angle of tilt, as described by Li (Li J. X., Acta Pharmacologica Sinica, 20:126, 1999) and Husain (Husain K., Pathophysiology, 4:69, 1997). The animals were made to run on an approximately 5° slope and at a belt speed of 28 m/min. The animals' stamina reached the point of exhaustion after approximately 85 min of exercise. The test was carried out in groups of animals which, during the three days preceding exercise, received 200 mg/kg of propionyl L-carnitine or 100 mg/kg of IP6 alone or in combination. Five and thirty minutes, respectively, after the end of exercise, samples of gastrocnemius muscle were taken from the sacrificed animals and used for measuring the malondialdehyde (MDA) content as a marker for the level of lipoperoxidation by means of reaction with thiobarbituric acid according to the method described by Ohkawa (Ohkawa H., Anal. Biochem., 95:351, 1979).

[7] = tested on: collagen-induced type II arthritis; assay: Collagen-induced arthritis test; type: in vivo; settings: mice; 200 mg/kg each, oral, from day of collagen injection to end of sixth week; oedema scores 1 to 4
Protocol: Confirmation of the anti-inflammatory effects of the composition according to the invention was obtained using as a test collagen-induced type II arthritis according to the technique described by […]. Exp. Med., 146:857, 1977). In this test, a group of mice were immunised by intradermal injection at the base of the tail of 100 μg of natural collagen emulsified in Freund complete adjuvant (Difco Labs., Detroit, USA). After three weeks, the animals thus treated were again injected intraperitoneally with the same dose of emulsified collagen. The treatment with propionyl […] (200 mg/kg) or with inositol hexaphosphate (200 mg/kg) or with the two compounds in combination was administered orally from the day of collagen injection up to the end of the sixth week. One group of animals received no treatment and served as a control group. The intensity of the oedema was assessed by assigning scores from 1 to 4.

[8] = tested on: carrageenin-induced oedema of the rat paw; assay: Carrageenin oedema test; type: in vivo; settings: 250 mg/kg each, oral
Protocol: To assess the anti-inflammatory effect of the new composition the carrageenin oedema test was used, in which rat paws are injected with carrageenin. The injection of 0.1 mL of 1% carrageenin solution (Sigma Chemical, St. Louis, Mo., USA) in the subplantar area of the rat's right paw induced marked oedema of the paw which reached its maximum intensity 4-5 hours after injection. The oedema was measured by mercury plethysmography at various different time intervals up to the fourth hour after carrageenin injection. Both propionyl L-carnitine (250 mg/kg) and IP6 (250 mg/kg) were administered orally half an hour prior to the subplantar carrageenin injection.

[9] = mouse epidermis 5 h after teleocidin 5 μg/mouse s.c., oral pretreatment propionyl L-carnitine 200 mg/kg, IP6 100 mg/kg
[10] = rat paw oedema, half an hour before carrageenin

| Compound | protective effect against atherosclerotic lesions (morphometric examination and Sudan IV staining) [1] | Ornithine decarboxylase activity [2, 9] | reduction of the teleocidin-induced increase in ornithine decarboxylase activity (in words) ([2]; oral pretreatment propionyl L-carnitine 200 mg/kg, IP6 100 mg/kg) | aggregating action of collagen, reduced to [3] [%] | Swimming time [4] [min] | mean swimming endurance time versus controls (in words) [4] | ATP after reoxygenation time 0 [5] [nmol g protein] | ATP after reoxygenation time 30 min [5] [nmol g protein] | ATP levels after anoxia and reoxygenation (in words) ([5]; NaCN 1 mmol/L) | MDA content in muscle after 5 min [6] | MDA content in muscle after 30 min [6] | muscle lipoperoxidation in muscle homogenate (in words) [6] | oedema inhibition [7] | % inhibition after 1 h ([8]; rat paw oedema, half an hour before carrageenin, 1 h) [%] | % inhibition after 2 h [8, 10] [%] | % inhibition after 4 h [8, 10] [%] | inhibitory action on the inflammatory reaction induced by carrageenin (in words) ([8]; rat) | inhibition of the aggregating action of collagen ([3]; propionyl L-carnitine 10 and 20 ng/mL) | Ornithine decarboxylase activity ([2]; mouse epidermis 5 h after teleocidin 5 μg/mouse s.c. alone, no pretreatment) |
| --- | --- | --- | --- | --- | --- | --- | --- | --- | --- | --- | --- | --- | --- | --- | --- | --- | --- | --- | --- |
| O=P(O)(O)O[C@H]1[C@H](OP(=O)(O)O)[C@@H](OP(=O)(O)O)[C@H](OP(=O)(O)O)[C@@H](OP(=O)(O)O)[C@H]1OP(=O)(O)O [IP6, inositol hexaphosphate] | only a slight protective effect | 1.95 ± 0.2 nMol of CO2/60 min/mg protein | significantly reduced | 40 | 136 ± 16 | slightly increased | 12.4 ± 2.1 | 16.9 ± 1.9 | a lesser reduction of ATP levels is observed as well as more rapid restoration of ATP levels | 200 ± 16 nmol/g (WW) | 205 ± 8 nmol/g (WW) | capable of reducing the levels of muscle lipoperoxidation | approximately 20% | 15 ± 1.1 | 20 ± 2.1 | 15 ± 0.6 | slight inhibitory action |  |  |
| CCC(=O)OC(CC(=O)[O-])C[N+](C)(C)C [Propionyl L-carnitine, propionyl L-carnitine] |  | 2.1 ± 0.2 nMol of CO2/60 min/mg protein |  |  | 116 ± 19 |  | 11.1 ± 1.6 | 16.3 ± 2.2 |  | 210 ± 10 nmol/g (WW) | 212 ± 14 nmol/g (WW) |  | no inhibitory effect |  | 15 ± 0.3 | 8 ± 0.9 |  | does not inhibit |  |
| teleocidin |  |  |  |  |  |  |  |  |  |  |  |  |  |  |  |  |  |  | 2.6 ± 0.4 nMol of CO2/60 min/mg protein |
